Patent US20190233884A1 (University of Southern California, priority 2016, published 2019)

System: patients with refractory metastatic colorectal cancer (mCRC)
Test: PFS, OS and disease control in the training (evaluation) cohort of refractory mCRC patients receiving TAS-102 (n=52, Japan), by baseline characteristics, SNP genotype and toxicity
Format: in vivo, human
Conditions: for OS HR (95% CI)‡ / PFS HR (95% CI) ‡: multivariable; for OS HR (95% CI)† / PFS HR (95% CI) † / OS HR (95% CI) / PFS HR (95% CI): univariate
Description: All patients underwent the treatment in salvage-line setting. […]
(§1) Genomic DNA was extracted from peripheral whole blood in patients of all cohorts using the QIAmp Kit (Qiagen, Valencia, Calif., USA) according to the manufacturer's protocol (www.qiagen.com). The candidate SNPs were genotyped using PCR-based direct DNA sequence analysis by ABI 3100A Capillary Genetic Analyzer and Sequencing Scanner v1.0 (Applied Biosystems). Amplification of extracted DNA was carried out using both forward and reverse primers for each gene polymorphism as shown in Table 1. […] The investigators analyzing SNPs were blinded to the clinical data of the study patients.
The primary endpoint in this study was progression-free survival (PFS), and the secondary endpoints were overall survival (OS) and disease control rate (DCR). PFS was calculated from the date of starting treatment to the first observation of disease progression or death from any cause. If a patient had no disease progression or death, PFS was censored at the date of last follow up. OS was calculated from the date of starting treatment until the date of death from any cause or the date of the last follow-up, at which point OS was censored. The disease control rate (DCR) was defined as the proportion of patients who achieved a stable disease (SD) or […] according to RECISTv1.1. Chi-square test was used to examine the difference in baseline patient characteristics among the three cohorts. Allelic distribution of all SNPs by ethnicity for deviation from Hardy-Weinberg equilibrium and the allelic frequencies of SNPs were tested using the Chi-square tests with one degree of freedom. The associations between candidate SNPs and disease control, and toxicities were examined using contingency tables and Fisher's exact test. The associations of SNPs with PFS and OS were analysed using Kaplan-Meier curves and the log-rank test. Because the true mode of inheritance of candidate SNPs was not established yet, a codominant or dominant genetic model if appropriate was considered.
All patients underwent the treatment in salvage-line setting. […] In all patients, adverse events were graded according to the Common Terminology Criteria for Adverse Events, version 4.0. […]
as §1, with “tested” for “genotyped”, “Biosystems).” for “Biosystems). Amplification of extracted DNA was carried out using both forward and reverse primers for each gene polymorphism as shown in Table 1.”, “data.” for “data of the study patients.”
The primary endpoint in this study was progression-free survival (PFS), and the secondary endpoints were overall survival (OS) and disease control rate (DCR).

[1] = Che1 rs1564796 T/C and C/C grouped together
[2] = Che1 rs1564796 T/C and C/C grouped vs T/T
[3] = Evaluation cohort, Anemia grade <3
[4] = Evaluation cohort, Anemia grade ≥3
[5] = Evaluation cohort, Anemia grade ≥3 vs <3
[6] = Evaluation cohort, Anorexia grade <3
[7] = Evaluation cohort, Anorexia grade ≥3
[8] = Evaluation cohort, Anorexia grade ≥3 vs <3
[9] = Evaluation cohort, Diarrhea grade <3
[10] = Evaluation cohort, Diarrhea grade ≥3
[11] = Evaluation cohort, Diarrhea grade ≥3 vs <3
[12] = Evaluation cohort, Leukopenia grade <3
[13] = Evaluation cohort, Leukopenia grade ≥3
[14] = Evaluation cohort, Leukopenia grade ≥3 vs <3
[15] = Evaluation cohort, Nausea grade <3
[16] = Evaluation cohort, Nausea grade ≥3
[17] = Evaluation cohort, Nausea grade ≥3 vs <3
[18] = Evaluation cohort, Neutropenia grade <3
[19] = Evaluation cohort, Neutropenia grade ≥3
[20] = Evaluation cohort, Neutropenia grade ≥3 vs <3
[21] = FANCD2 rs6792811 G/A and G/G grouped together
[22] = FANCD2 rs6792811 G/A and G/G grouped vs A/A

## Trifluridine/tipiracil [TAS-102]
CHEK2 rs22236142 G/C vs G/G
  OS HR (95% CI)‡: 0.55 (0.19, 1.58)
  PFS HR (95% CI) ‡: 1.13 (0.55, 2.34)
  OS HR (95% CI)†: 0.78 (0.29, 2.11)
  PFS HR (95% CI) †: 1.43 (0.72, 2.84)
CHEK2 rs22236142 G/G
  OS median, months (95% CI): 8.1 (4.4, 14.8+) months
  PFS median, months (95% CI): 2.9 (1.6, 4.9) months
Che1 rs1045056 T/C
  OS median, months (95% CI): 12.4 (5.3, 12.4+) months
  PFS median, months (95% CI): 2.1 (1.2, 4.2) months
Che1 rs1045056 T/C vs T/T
  OS HR (95% CI)‡: 0.60 (0.19, 1.85)
  PFS HR (95% CI) ‡: 1.70 (0.80, 3.64)
  OS HR (95% CI)†: 0.55 (0.18, 1.63)
  PFS HR (95% CI) †: 1.25 (0.61, 2.57)
Che1 rs1045056 T/T
  OS median, months (95% CI): 7.2 (5.4, 15.6+) months
  PFS median, months (95% CI): 2.9 (1.9, 3.5) months
[1]
  OS median, months (95% CI): 12.4 (5.3, 12.4+) months
  PFS median, months (95% CI): 2.1 (1.2, 4.6) months
[2]
  OS HR (95% CI)‡: 0.60 (0.19, 1.87)
  PFS HR (95% CI) ‡: 1.41 (0.65, 3.07)
  OS HR (95% CI)†: 0.56 (0.19, 1.68)
  PFS HR (95% CI) †: 1.17 (0.57, 2.40)
Che1 rs1564796 T/T
  OS median, months (95% CI): 7.2 (5.4, 15.6+) months
  PFS median, months (95% CI): 2.9 (2.0, 3.5) months
[3]
  OS median, months (95% CI): 8.3 (5.7, 15.6+) months
  PFS median, months (95% CI): 2.5 (2.0, 3.4) months
[4]
  OS median, months (95% CI): 6.3 (2.0, 14.8+) months
  PFS median, months (95% CI): 3.4 (1.5, 6.0+) months
[5]
  OS HR (95% CI): 1.87 (0.74, 4.74)
  PFS HR (95% CI): 0.70 (0.32, 1.53)
[6]
  OS median, months (95% CI): 8.1 (5.7, 12.4+) months
  PFS median, months (95% CI): 2.9 (2.1, 3.4) months
[7]
  OS median, months (95% CI): 8.7 (1.4, 15.6+) months
  PFS median, months (95% CI): 2.7 (0.9, 11.3) months
[8]
  OS HR (95% CI): 0.85 (0.27, 2.69)
  PFS HR (95% CI): 0.67 (0.27, 1.69)
[9]
  OS median, months (95% CI): 8.3 (6.3, 12.4) months
  PFS median, months (95% CI): 2.5 (2.0, 3.4) months
[10]
  OS median, months (95% CI): 5.7 (2.0, 14.8+) months
  PFS median, months (95% CI): 2.9 (1.8, 6.0+) months
[11]
  OS HR (95% CI): 1.49 (0.49, 4.53)
  PFS HR (95% CI): 0.88 (0.35, 2.26)
[12]
  OS median, months (95% CI): 8.3 (4.9, 15.6+) months
  PFS median, months (95% CI): 2.5 (1.9, 3.5) months
[13]
  OS median, months (95% CI): 8.1 (5.7, 10.7+) months
  PFS median, months (95% CI): 3.4 (1.6, 4.6) months
[14]
  OS HR (95% CI): 0.73 (0.26, 2.01)
  PFS HR (95% CI): 0.93 (0.45, 1.90)
[15]
  OS median, months (95% CI): 8.1 (6.3, 14.8+) months
  PFS median, months (95% CI): 3.3 (2.3, 3.7) months
[16]
  OS median, months (95% CI): 5.7 (2.7, 12.4) months
  PFS median, months (95% CI): 1.9 (1.6, 2.7) months
[17]
  OS HR (95% CI): 1.58 (0.65, 3.83)
  PFS HR (95% CI): 1.24 (0.62, 2.49)
[18]
  OS median, months (95% CI): 6.3 (3.4, 15.6+) months
  PFS median, months (95% CI): 2.1 (1.8, 3.0) months
[19]
  OS median, months (95% CI): 8.3 (6.3, 14.8+) months
  PFS median, months (95% CI): 3.4 (1.8, 4.9) months
[20]
  OS HR (95% CI): 0.59 (0.24, 1.43)
  PFS HR (95% CI): 0.68 (0.37, 1.28)
FANCD2 rs2272125 T/G
  OS median, months (95% CI): 7.2 (2.7, 7.8+) months
  PFS median, months (95% CI): 2.8 (1.6, 6.6+) months
FANCD2 rs2272125 T/G vs T/T
  OS HR (95% CI)‡: 1.38 (0.39, 4.90)
  PFS HR (95% CI) ‡: 0.91 (0.35, 2.35)
  OS HR (95% CI)†: 1.66 (0.47, 5.83)
  PFS HR (95% CI) †: 0.98 (0.38, 2.51)
FANCD2 rs2272125 T/T
  OS median, months (95% CI): 8.3 (5.7, 15.6+) months
  PFS median, months (95% CI): 2.7 (2.1, 3.4) months
FANCD2 rs6792811 A/A
  OS median, months (95% CI): 8.7 (5.4, 14.8+) months
  PFS median, months (95% CI): 2.9 (2.1, 4.2) months
[21]
  OS median, months (95% CI): 7.2 (3.3, 15.6+) months
  PFS median, months (95% CI): 2.1 (1.5, 3.4) months
[22]
  OS HR (95% CI)‡: 1.17 (0.48, 2.87)
  PFS HR (95% CI) ‡: 1.43 (0.74, 2.74)
  OS HR (95% CI)†: 1.27 (0.52, 3.08)
  PFS HR (95% CI) †: 1.29 (0.68, 2.47)
JPN TAS-102 cohort, XRCC3 rs861539 G/G (n = 35)
  Median OS (months): 6.3 months
PCNA rs25406 A/A
  OS median, months (95% CI): 8.7 (5.3, 10.7+) months
  PFS median, months (95% CI): 2.5 (1.4, 4.6) months
PCNA rs25406 A/A vs G/G
  OS HR (95% CI)‡: 0.55 (0.17, 1.84)
  PFS HR (95% CI) ‡: 0.65 (0.28, 1.51)
  OS HR (95% CI)†: 0.67 (0.21, 2.19)
  PFS HR (95% CI) †: 0.89 (0.39, 2.03)
PCNA rs25406 Any A
  OS median, months (95% CI): 8.1 (5.7, 15.6+) months
  PFS median, months (95% CI): 3.3 (2.1, 3.5) months
PCNA rs25406 Any A vs G/G
  OS HR (95% CI)‡: 0.54 (0.22, 1.35)
  PFS HR (95% CI) ‡: 0.53 (0.27, 1.06)
  OS HR (95% CI)†: 0.64 (0.26, 1.56)
  PFS HR (95% CI) †: 0.74 (0.39, 1.42)
PCNA rs25406 G/A
  OS median, months (95% CI): 8.1 (5.7, 15.6+) months
  PFS median, months (95% CI): 3.4 (1.9, 3.7) months
PCNA rs25406 G/A vs G/G
  OS HR (95% CI)‡: 0.54 (0.19, 1.52)
  PFS HR (95% CI) ‡: 0.46 (0.21, 1.02)
